Test results taken from ChEMBL document CHEMBL5390253, “Discovery of Selective and Potent Macrocyclic CDK9 Inhibitors for the Treatment of Osimertinib-Resistant Non-Small-Cell Lung Cancer” (J Med Chem, 2023).
The source made the active and inactive calls. The calls are words filed in the database; no cut-off is given here.

How the values were obtained:
[1] = target: Tyrosine-protein kinase JAK2 (Homo sapiens) (UniProt O60674); assay: Inhibition of JAK2 (unknown origin) at 100 nM preincubated for 10 mins followed by substrate addition and measured after 60 mins in presence of ATP by ADP-Glo reagent based assay relative to control; conditions: time 70.0 min
HCC827 = assay: Antiproliferative activity against human HCC827 cells incubated for 72 hrs by MTT assay; assay type: functional, cell-based; conditions: HCC827, 72 h
[2] = target: CDK1/Cyclin A (Homo sapiens) (UniProt P06493+P20248); assay: Inhibition of CDK1/Cyclin A2 (unknown origin) at 200 nM preincubated for 10 mins followed by substrate addition and measured after 60 mins in presence of ATP by ADP-Glo reagent based assay relative to control; assay type: protein-complex assay; conditions: time 70.0 min
[3] = target: CDK1/Cyclin E (Homo sapiens) (UniProt P06493+P24864); assay: Inhibition of CDK1/Cyclin E1 (unknown origin) at 200 nM preincubated for 10 mins followed by substrate addition and measured after 60 mins in presence of ATP by ADP-Glo reagent based assay relative to control; assay type: protein-complex assay; conditions: time 70.0 min
[4] = target: Cyclin-dependent kinase 2/cyclin E1 (Homo sapiens) (UniProt P24864+P24941); assay: Inhibition of CDK2/Cyclin E1 (unknown origin) at 200 nM preincubated for 10 mins followed by substrate addition and measured after 60 mins in presence of ATP by ADP-Glo reagent based assay relative to control; assay type: protein-complex assay; conditions: time 70.0 min
[5] = target: Cyclin-dependent kinase 4/cyclin D1 (Homo sapiens) (UniProt P11802+P24385); assay: Inhibition of CDK4/Cyclin D1 (unknown origin) at 200 nM preincubated for 10 mins followed by substrate addition and measured after 60 mins in presence of ATP by ADP-Glo reagent based assay relative to control; assay type: protein-complex assay; conditions: time 70.0 min
[6] = target: CDK6/cyclin D3 (Homo sapiens) (UniProt P30281+Q00534); assay: Inhibition of CDK6/cyclin D3 (unknown origin) at 200 nM preincubated for 10 mins followed by substrate addition and measured after 60 mins in presence of ATP by ADP-Glo reagent based assay relative to control; assay type: protein-complex assay; conditions: time 70.0 min
[7] = target: CDK9/cyclin T1 (Homo sapiens) (UniProt O60563+P50750); assay: Inhibition of CDK9/cyclin T1 (unknown origin) at 200 nM preincubated for 10 mins followed by substrate addition and measured after 60 mins in presence of ATP by ADP-Glo reagent based assay relative to control; assay type: protein-complex assay; conditions: time 70.0 min
[8] = target: CDK12/Cyclin K (Homo sapiens) (UniProt O75909+Q9NYV4); assay: Inhibition of CDK12/cyclin K (unknown origin) at 200 nM preincubated for 10 mins followed by substrate addition and measured after 60 mins in presence of ATP by ADP-Glo reagent based assay relative to control; assay type: protein-complex assay; conditions: time 70.0 min
[9] = test system: Epidermal growth factor receptor (Homo sapiens), P00533 [L858R,T790M,C797S]; assay: Inhibition of EGFR T790M/C797S/L858R triple mutant (unknown origin) at 2500 nM preincubated for 10 mins followed by substrate addition and measured after 60 mins in presence of ATP by ADP-Glo reagent based assay relative to control; conditions: time 70.0 min
[10] = target: Mitogen-activated protein kinase 15 (Homo sapiens) (UniProt Q8TD08); assay: Inhibition of ERK7 (unknown origin) at 500 nM preincubated for 10 mins followed by substrate addition and measured after 60 mins in presence of ATP by ADP-Glo reagent based assay relative to control; conditions: time 70.0 min
[11] = target: Cyclin-dependent kinase 9 (Homo sapiens) (UniProt P50750); assay: Inhibition of CDK9 in human Osimertinib-resistant NCI-H1975 cell assessed as suppression of p-RNAP II phosphorylation at Ser2 residue incubated for 8 hrs by Western blot analysis; assay type: cell-based; conditions: dose 0.05-1 µM
NCI-H1975 [12] = assay: Downregulation of Mcl-1 mRNA expression in human Osimertinib-resistant NCI-H1975 cell at 0.1 to 1.0 uM measured after 8 hrs by qPCR analysis; assay type: functional, cell-based; conditions: dose 0.1-1 µM
[13] = Antiproliferative activity against human Osimertinib-resistant NCI-H1975 cell assessed as cell growth inhibition incubated for 72 hrs by MTT assay; assay type: functional, cell-based; conditions: NCI-H1975, 72 h
NCI-H1975 [14] = assay: Downregulation of Bcl-2 level in human Osimertinib-resistant NCI-H1975 cell measured after 16 hrs by Western blot analysis; assay type: functional, cell-based; conditions: dose 125-2000 nM
NCI-H1975 [15] = assay: Downregulation of cleaved PARP level in human Osimertinib-resistant NCI-H1975 cell at 125 nM measured after 16 hrs in presence of osimertinib by Western blot analysis; assay type: functional, cell-based
[16] = Induction of apoptosis in human Osimertinib-resistant NCI-H1975 cell assessed as viable cells at 125 nM measured after 16 hrs by Annexin V-FITC and PI staining based analysis (reference value: 94.9%); assay type: functional; conditions: read-out: Activity
[17] = Induction of apoptosis in human Osimertinib-resistant NCI-H1975 cell assessed as viable cells at 2000 nM measured after 16 hrs by Annexin V-FITC and PI staining based analysis (reference value: 94.9%); assay type: functional; conditions: read-out: Activity
[18] = Induction of apoptosis in human Osimertinib-resistant NCI-H1975 cell assessed as early apoptotic cells at 125 nM measured after 16 hrs by Annexin V-FITC and PI staining based analysis (Rvb =1.78%); assay type: functional
[19] = Induction of apoptosis in human Osimertinib-resistant NCI-H1975 cell assessed as early apoptotic cells at 2000 nM measured after 16 hrs by Annexin V-FITC and PI staining based analysis (reference value: 1.78%); assay type: functional
[20] = Induction of apoptosis in human Osimertinib-resistant NCI-H1975 cell assessed as late apoptotic cells at 500 nM measured after 16 hrs by Annexin V-FITC and PI staining based analysis (reference value: 2.84%); assay type: functional
[21] = Induction of apoptosis in human Osimertinib-resistant NCI-H1975 cell assessed as necrotic cells at 125 nM measured after 16 hrs by Annexin V-FITC and PI staining based analysis (reference value: 0.50%); assay type: functional
CYP3A4 = CYP3A4 (Homo sapiens, UniProt P08684); assay: Inhibition of CYP3A4 in human liver microsomes using midazolam as substrate at 10 uM incubated for 5 mins in presence of NADPH by LC-MS/MS analysis relative to control; assay type: ADME, Microsome; conditions: probe midazolam
[22] = Toxicity in ICR mouse assessed as abnormalities in liver at 1000 mg/kg, po measured after 9 days by H and E staining based analysis; assay type: organism-based; conditions: in vivo, 216 h, time 9 day
[23] = Toxicity in ICR mouse assessed as abnormalities in lung at 1000 mg/kg, po measured after 9 days by H and E staining based analysis; assay type: organism-based; conditions: in vivo, 216 h, time 9 day
[24] = Antitumor activity against patient derived #0243 lung cancer organoid assessed as inhibition of growth measured after 4 days; assay type: functional, tissue-based; conditions: Homo sapiens, 96 h
[25] = Antitumor activity against patient derived #2422 lung cancer organoid assessed as inhibition of growth measured after 4 days; assay type: functional, tissue-based; conditions: Homo sapiens, 96 h
[26] = Antitumor activity against patient derived #2862 lung cancer organoid assessed as inhibition of growth measured after 4 days; assay type: functional, tissue-based; conditions: Homo sapiens, 96 h
cells = conditions: Homo sapiens, Osimertinib-resistant HCC827AR cell, 72 h

Chain of Mitogen-activated protein kinase 15 (Homo sapiens) (Q8TD08 whole entry): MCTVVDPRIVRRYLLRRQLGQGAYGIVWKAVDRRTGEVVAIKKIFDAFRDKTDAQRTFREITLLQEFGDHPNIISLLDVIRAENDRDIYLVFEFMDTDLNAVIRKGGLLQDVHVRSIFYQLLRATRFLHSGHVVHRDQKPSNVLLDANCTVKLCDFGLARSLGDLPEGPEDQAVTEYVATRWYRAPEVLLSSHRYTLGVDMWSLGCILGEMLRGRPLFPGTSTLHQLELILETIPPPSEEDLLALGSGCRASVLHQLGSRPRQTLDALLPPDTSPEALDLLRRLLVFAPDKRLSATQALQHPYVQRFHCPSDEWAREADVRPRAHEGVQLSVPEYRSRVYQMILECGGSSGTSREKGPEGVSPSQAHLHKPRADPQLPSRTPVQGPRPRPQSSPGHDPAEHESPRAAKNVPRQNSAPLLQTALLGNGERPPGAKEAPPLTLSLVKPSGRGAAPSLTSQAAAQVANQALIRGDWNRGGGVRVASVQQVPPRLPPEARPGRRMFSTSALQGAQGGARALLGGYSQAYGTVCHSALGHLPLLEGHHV
Chain of Cyclin-dependent kinase 9 (Homo sapiens) (P50750 whole entry): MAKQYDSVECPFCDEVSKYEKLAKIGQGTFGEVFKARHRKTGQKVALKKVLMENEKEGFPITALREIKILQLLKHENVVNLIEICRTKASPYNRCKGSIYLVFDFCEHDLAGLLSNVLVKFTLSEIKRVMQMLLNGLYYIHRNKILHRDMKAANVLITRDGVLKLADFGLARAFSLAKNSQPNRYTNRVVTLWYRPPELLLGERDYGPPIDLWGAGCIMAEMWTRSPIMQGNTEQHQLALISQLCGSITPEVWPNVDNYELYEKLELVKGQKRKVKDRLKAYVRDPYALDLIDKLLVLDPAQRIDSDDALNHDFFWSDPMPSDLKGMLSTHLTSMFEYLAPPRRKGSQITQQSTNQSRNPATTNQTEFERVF
Chain of CDK12/Cyclin K (Homo sapiens) (O75909 whole entry, looked up): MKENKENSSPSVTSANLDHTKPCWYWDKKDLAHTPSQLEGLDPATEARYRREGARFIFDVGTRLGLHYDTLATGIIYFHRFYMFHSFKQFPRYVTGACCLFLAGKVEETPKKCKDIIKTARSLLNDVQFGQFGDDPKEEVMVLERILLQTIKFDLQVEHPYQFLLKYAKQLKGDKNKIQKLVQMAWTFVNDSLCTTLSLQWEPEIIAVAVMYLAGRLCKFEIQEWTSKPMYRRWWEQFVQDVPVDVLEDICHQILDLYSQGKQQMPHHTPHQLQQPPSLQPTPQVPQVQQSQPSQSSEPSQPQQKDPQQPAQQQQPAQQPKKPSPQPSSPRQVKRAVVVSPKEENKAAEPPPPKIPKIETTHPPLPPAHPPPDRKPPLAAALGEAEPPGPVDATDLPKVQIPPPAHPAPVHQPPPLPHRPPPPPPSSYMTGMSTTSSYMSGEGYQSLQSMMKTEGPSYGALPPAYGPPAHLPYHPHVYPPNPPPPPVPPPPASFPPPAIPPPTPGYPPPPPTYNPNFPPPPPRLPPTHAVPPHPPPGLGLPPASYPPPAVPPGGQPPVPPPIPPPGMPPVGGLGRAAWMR
Chain of CDK12/Cyclin K (Homo sapiens) (Q9NYV4 whole entry, looked up): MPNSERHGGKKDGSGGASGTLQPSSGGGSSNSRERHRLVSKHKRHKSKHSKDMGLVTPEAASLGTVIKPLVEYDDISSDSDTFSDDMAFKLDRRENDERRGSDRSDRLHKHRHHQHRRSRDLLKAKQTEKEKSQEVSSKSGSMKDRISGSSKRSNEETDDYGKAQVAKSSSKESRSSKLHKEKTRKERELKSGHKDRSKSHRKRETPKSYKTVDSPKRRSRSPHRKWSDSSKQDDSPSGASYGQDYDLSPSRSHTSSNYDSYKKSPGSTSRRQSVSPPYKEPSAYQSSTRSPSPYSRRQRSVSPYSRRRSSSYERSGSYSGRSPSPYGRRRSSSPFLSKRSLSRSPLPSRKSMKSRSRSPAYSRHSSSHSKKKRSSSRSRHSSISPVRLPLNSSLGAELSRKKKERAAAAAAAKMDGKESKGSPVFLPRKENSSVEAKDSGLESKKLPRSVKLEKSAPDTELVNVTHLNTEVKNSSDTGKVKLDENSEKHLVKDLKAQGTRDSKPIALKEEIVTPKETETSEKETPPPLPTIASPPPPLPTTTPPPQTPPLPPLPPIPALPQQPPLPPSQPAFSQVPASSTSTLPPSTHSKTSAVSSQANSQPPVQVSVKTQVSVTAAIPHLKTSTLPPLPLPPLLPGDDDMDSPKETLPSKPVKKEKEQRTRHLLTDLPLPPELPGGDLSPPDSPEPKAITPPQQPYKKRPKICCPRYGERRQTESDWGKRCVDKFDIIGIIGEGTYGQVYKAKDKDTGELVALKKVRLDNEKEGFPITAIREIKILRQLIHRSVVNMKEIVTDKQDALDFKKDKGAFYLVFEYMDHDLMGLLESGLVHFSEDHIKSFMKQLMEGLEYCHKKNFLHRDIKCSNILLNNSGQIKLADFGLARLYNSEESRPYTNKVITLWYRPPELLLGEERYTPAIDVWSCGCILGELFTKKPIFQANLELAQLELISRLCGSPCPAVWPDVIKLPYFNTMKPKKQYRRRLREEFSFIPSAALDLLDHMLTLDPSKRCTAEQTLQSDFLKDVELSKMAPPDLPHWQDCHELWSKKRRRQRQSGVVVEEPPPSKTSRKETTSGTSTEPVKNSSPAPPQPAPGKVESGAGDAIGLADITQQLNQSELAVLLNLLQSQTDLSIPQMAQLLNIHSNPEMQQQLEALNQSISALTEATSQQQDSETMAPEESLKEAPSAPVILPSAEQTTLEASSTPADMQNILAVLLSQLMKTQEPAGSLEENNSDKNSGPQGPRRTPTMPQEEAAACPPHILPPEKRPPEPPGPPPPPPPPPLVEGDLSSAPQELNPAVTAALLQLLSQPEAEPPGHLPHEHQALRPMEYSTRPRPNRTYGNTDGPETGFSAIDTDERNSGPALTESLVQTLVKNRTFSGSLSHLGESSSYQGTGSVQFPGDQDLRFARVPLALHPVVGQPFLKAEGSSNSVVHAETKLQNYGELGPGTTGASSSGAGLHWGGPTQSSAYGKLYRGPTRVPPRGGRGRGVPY
Chain of Epidermal growth factor receptor (Homo sapiens), P00533 [L858R,T790M,C797S] (P00533 whole entry T790M/C797S/L858R): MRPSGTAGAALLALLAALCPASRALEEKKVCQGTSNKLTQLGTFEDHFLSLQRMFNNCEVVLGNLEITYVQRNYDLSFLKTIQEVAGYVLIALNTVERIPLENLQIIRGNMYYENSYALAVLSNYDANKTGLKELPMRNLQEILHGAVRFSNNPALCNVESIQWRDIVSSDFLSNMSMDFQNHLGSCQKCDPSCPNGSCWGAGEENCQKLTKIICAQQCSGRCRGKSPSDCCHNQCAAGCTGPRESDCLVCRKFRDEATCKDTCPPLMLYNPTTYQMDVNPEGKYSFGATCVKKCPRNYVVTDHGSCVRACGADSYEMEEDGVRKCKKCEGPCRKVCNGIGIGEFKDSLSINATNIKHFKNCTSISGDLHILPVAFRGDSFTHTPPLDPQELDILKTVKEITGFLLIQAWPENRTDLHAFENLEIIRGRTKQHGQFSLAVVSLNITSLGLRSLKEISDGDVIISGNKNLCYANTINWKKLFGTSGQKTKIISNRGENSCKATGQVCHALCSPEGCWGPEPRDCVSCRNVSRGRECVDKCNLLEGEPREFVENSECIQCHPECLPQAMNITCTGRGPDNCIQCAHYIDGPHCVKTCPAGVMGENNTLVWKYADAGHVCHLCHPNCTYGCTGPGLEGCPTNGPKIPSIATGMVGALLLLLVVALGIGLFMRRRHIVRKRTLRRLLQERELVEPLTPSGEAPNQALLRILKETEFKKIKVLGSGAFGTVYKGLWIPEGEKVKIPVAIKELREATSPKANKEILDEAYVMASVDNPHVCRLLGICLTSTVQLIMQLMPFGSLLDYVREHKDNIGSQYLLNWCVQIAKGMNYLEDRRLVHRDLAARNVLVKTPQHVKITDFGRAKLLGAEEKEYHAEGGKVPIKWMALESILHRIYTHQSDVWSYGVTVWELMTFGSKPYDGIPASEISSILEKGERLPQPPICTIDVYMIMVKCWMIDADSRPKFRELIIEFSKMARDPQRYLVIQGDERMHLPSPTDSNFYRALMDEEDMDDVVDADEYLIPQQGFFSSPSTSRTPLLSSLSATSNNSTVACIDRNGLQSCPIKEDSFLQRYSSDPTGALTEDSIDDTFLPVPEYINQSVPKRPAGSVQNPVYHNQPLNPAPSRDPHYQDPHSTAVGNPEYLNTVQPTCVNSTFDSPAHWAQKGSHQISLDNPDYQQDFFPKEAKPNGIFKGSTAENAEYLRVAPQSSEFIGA
Chain of CDK1/Cyclin A (Homo sapiens) (P06493 whole entry, looked up): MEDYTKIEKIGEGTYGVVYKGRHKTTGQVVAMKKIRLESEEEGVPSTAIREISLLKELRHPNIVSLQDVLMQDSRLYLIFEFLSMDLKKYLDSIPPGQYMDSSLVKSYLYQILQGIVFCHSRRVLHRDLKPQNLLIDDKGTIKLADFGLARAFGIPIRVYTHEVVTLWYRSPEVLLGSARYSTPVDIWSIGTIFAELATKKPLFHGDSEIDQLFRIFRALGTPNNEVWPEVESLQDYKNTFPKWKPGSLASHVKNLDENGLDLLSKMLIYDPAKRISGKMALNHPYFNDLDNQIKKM
Chain of CDK1/Cyclin A (Homo sapiens) (P20248 whole entry, looked up): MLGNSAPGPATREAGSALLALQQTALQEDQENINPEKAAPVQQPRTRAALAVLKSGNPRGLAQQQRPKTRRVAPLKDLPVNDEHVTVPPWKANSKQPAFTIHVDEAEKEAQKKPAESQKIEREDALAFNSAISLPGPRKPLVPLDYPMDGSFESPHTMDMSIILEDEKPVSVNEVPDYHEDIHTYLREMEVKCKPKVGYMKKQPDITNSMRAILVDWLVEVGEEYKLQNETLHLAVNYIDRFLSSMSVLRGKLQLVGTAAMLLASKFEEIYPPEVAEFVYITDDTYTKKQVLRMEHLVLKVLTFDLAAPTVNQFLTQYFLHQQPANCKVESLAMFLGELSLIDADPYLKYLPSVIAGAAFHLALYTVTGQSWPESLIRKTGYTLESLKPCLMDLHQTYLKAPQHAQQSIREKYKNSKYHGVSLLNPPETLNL

inhibition [1]: 23.3%
IC50 (HCC827): 315 nM
inhibition [2]: 15.7%
inhibition [3]: 16.4%
inhibition [4]: 44.7%
inhibition [5]: 32.1%
inhibition [6]: 11.6%
inhibition [7]: 99.3%
inhibition [8]: 56.4%
inhibition [9]: 33.3%
inhibition [11]: Dose-Dependent Effect
inhibition at 5 min, 10 µM (CYP3A4): 27.5%
IC50 (cells): 251 nM
Structure (SMILES): O=C(NCCN1CCOCC1)c1ccc2cc1OCCCCCCOc1cc(ccc1F)-c1nc(ncc1F)N2
inhibition [10]: 83.5%
Activity (NCI-H1975 [12]): Active
IC50 [13]: 190 nM
Activity (NCI-H1975 [14]): Dose-Dependent Effect
Activity (NCI-H1975 [15]): Active
viability at 0.125 µM [16]: 88.9%
viability at 2 µM [17]: 65.5%
Activity [18]: 4.7%
Activity [19]: 18.9%
Activity [20]: 7.02%
Activity [21]: 3.25%
Activity [22]: Non-Toxic
Activity [23]: Non-Toxic
IC50 [24]: 120 nM
IC50 [25]: < 80 nM
IC50 [26]: 940 nM
